Test results as given in article PMC3476531, “Synergy of Peptide and Sugar in O-GlcNAcase Substrate Recognition” (Chemistry & Biology, 2012).

Target: CpOGA (Clostridium perfringens, UniProt Q0TR53)
Settings: read-out: Michaelis constant (KM) of glycopeptide substrate for CpOGA; pH 7.4

Substance | Km
PVSVPYS(O-GlcNAc)SAQSTS [TAB1 (Ser395) 13] | 36 ± 1 µM
p53 (Ser149) 11: 11-residue O-GlcNAc glycopeptide derived from p53 Ser149 site | 2.9 ± 0.4 µM
VAHS(O-GlcNAc)GAK [hOGA (Ser405) 7] | 40 ± 10 µM
